Measurements taken from PubChem BioAssay AID248 (DTP/NCI, 2004).
Several values for one entry are separate records, joined by “and”; a condition that tells them apart may be missing. Equal entries are not always repeated. Toxic doses and inconclusive results are not listed.

Test system: L1210 leukemia ip in BDF1 mice, survival T/C
Experiment: NCI In Vivo Anticancer Drug Screen. Data for tumor model L1210 Leukemia (intraperitoneal) in B6D2F1 (BDF1) mice
Conditions: endpoint: mean survival time, higher = longer survival
Method in brief: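 Value reflects the ratio of survival in compound-treated mice to survival in vehicle-treated controls, with both groups carrying the same transplanted tumor.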

[1] = dose: 100.0 mg/kg/injection, schedule: Q01DX009 (ip), vehicle: saline with Tween-80
[2] = dose: 200.0 mg/kg/injection, schedule: Q01DX009 (ip), vehicle: saline with Tween-80
[3] = dose: 50.0 mg/kg/injection, schedule: Q01DX009 (ip), vehicle: saline with Tween-80
[4] = dose: 50.0 mg/kg/injection, schedule: Q01DX009 (ip), vehicle: saline
[5] = dose: 100.0 mg/kg/injection, schedule: Q01DX009 (ip), vehicle: saline
[6] = dose: 100.0 mg/kg/injection, schedule: Q04DX003 (ip), vehicle: other
[7] = dose: 200.0 mg/kg/injection, schedule: Q04DX003 (ip), vehicle: other
[8] = dose: 400.0 mg/kg/injection, schedule: Q04DX003 (ip), vehicle: other

Structure (SMILES): CCCC(C)(C)C(=O)Nc1cccc(OC(=O)NC(C)C)c1
- T/C [1]: 96 % of control
- T/C [2]: 86 % of control
- T/C (dose: 400.0 mg/kg/injection, schedule: Q01DX009 (ip), vehicle: saline with Tween-80): 91 % of control

Structure (SMILES): CC1(C)C(=O)C2C=CCC21 (stereo not drawn)
- T/C [3]: 91 % of control
- T/C [1]: 98 % of control
- T/C [2]: 95 % of control

Structure (SMILES): [Cu+2].[NH-]C(CC(N)=O)C(=O)O.[NH-]C(CC(N)=O)C(=O)O (stereo not drawn)
- T/C (dose: 12.5 mg/kg/injection, schedule: Q01DX009 (ip), vehicle: saline): 107 % of control
- T/C (dose: 12.5 mg/kg/injection, schedule: Q04DX003 (ip), vehicle: saline): 92 % of control
- T/C (dose: 25.0 mg/kg/injection, schedule: Q01DX009 (ip), vehicle: saline): 98 % of control
- T/C (dose: 25.0 mg/kg/injection, schedule: Q04DX003 (ip), vehicle: saline): 94 % of control
- T/C (dose: 50.0 mg/kg/injection, schedule: Q04DX003 (ip), vehicle: saline): 87 % of control

Structure (SMILES): CCCC[N+](C)(CCCC)CCCC
- T/C (dose: 75.0 mg/kg/injection, schedule: Q01DX001 (ip), vehicle: saline): 101 % of control

Structure (SMILES): CC1(C)CCC(C)(C)c2cc(Br)ccc21
- T/C (dose: 100.0 mg/kg/injection, schedule: Q01DX001 (ip), vehicle: carboxymethylcellulose (CMC)): 103 % of control
- T/C (dose: 200.0 mg/kg/injection, schedule: Q01DX001 (ip), vehicle: carboxymethylcellulose (CMC)): 95 % of control
- T/C (dose: 400.0 mg/kg/injection, schedule: Q01DX001 (ip), vehicle: carboxymethylcellulose (CMC)): 95 % of control

Structure (SMILES): O=C(O)/C=C\C(=O)NNC(=O)/C=C\C(=O)O
- T/C [3]: 101 % of control
- T/C [4]: 100 % of control
- T/C [1]: 96 % of control
- T/C [5]: 100 % of control
- T/C [2]: 104 % of control
- T/C (dose: 200.0 mg/kg/injection, schedule: Q01DX009 (ip), vehicle: saline): 93 % of control

Structure (SMILES): Cc1c(Cl)cccc1NC(=O)Nc1ccccc1
- T/C (dose: 25.0 mg/kg/injection, schedule: Q01DX009 (ip), vehicle: DMSO): 95 % of control
- T/C (dose: 50.0 mg/kg/injection, schedule: Q01DX009 (ip), vehicle: DMSO): 95 % of control
- T/C (dose: 100.0 mg/kg/injection, schedule: Q01DX009 (ip), vehicle: DMSO): 88 % of control
- T/C (dose: 100.0 mg/kg/injection, schedule: Q04DX003 (sc), vehicle: olive oil, sesame oil, peanut oil): 95 % of control
- T/C (dose: 200.0 mg/kg/injection, schedule: Q04DX003 (sc), vehicle: olive oil, sesame oil, peanut oil): 99 % of control
- T/C (dose: 400.0 mg/kg/injection, schedule: Q04DX003 (sc), vehicle: olive oil, sesame oil, peanut oil): 114 % of control

Structure (SMILES): O=S(=O)(c1ccccc1)n1ccc2ccccc21
- T/C (dose: 100.0 mg/kg/injection, schedule: Q04DX002 (ip), vehicle: saline with Tween-80): 93 % of control
- T/C (dose: 200.0 mg/kg/injection, schedule: Q04DX002 (ip), vehicle: saline with Tween-80): 97 % of control
- T/C (dose: 400.0 mg/kg/injection, schedule: Q04DX002 (ip), vehicle: saline with Tween-80): 97 % of control

Structure (SMILES): CC1(O)CCCCC1c1ccccc1 (stereo not drawn)
- T/C [6]: 104 % of control
- T/C [7]: 95 % of control
- T/C [8]: 93 % of control

Structure (SMILES): NOCc1ccc(OCc2ccccc2)cc1
- T/C (dose: 100.0 mg/kg/injection, schedule: Q04DX003 (ip), vehicle: acetone): 102 % of control
- T/C (dose: 200.0 mg/kg/injection, schedule: Q04DX003 (ip), vehicle: acetone): 95 % of control

Structure (SMILES): NCCOCCOCCN
- T/C [4]: 108 % of control
- T/C [5]: 87 % of control

Structure (SMILES): CC(=O)c1ccc(NC(=O)N(CCCl)N=O)cc1
- T/C (dose: 2.0 mg/kg/injection, schedule: Q01DX001 (ip), vehicle: carboxymethylcellulose (CMC)): 122 % of control
- T/C (dose: 18.0 mg/kg/injection, schedule: Q01DX001 (ip), vehicle: carboxymethylcellulose (CMC)): 190 % of control
- T/C (dose: 25.0 mg/kg/injection, schedule: Q01DX001 (ip), vehicle: carboxymethylcellulose (CMC)): 152 % of control
- T/C (dose: 75.0 mg/kg/injection, schedule: Q01DX001 (ip), vehicle: carboxymethylcellulose (CMC)): 191 % of control
- T/C (dose: 150.0 mg/kg/injection, schedule: Q01DX001 (ip), vehicle: carboxymethylcellulose (CMC)): 160 % of control
- T/C (dose: 300.0 mg/kg/injection, schedule: Q01DX001 (ip), vehicle: carboxymethylcellulose (CMC)): 97 % of control

Structure (SMILES): COc1ccc(C(=O)Nc2cc(Cl)ccc2OC)cc1
- T/C (dose: 100.0 mg/kg/injection, schedule: Q01DX001 (ip), vehicle: other): 101 % of control
- T/C (dose: 100.0 mg/kg/injection, schedule: Q01DX009 (ip), vehicle: other): 98 % of control and 102 % of control
- T/C (dose: 100.0 mg/kg/injection, schedule: Q04DX002 (ip), vehicle: carboxymethylcellulose (CMC)): 93 % of control and 103 % of control
- T/C [6]: 97 % of control
- T/C (dose: 200.0 mg/kg/injection, schedule: Q01DX001 (ip), vehicle: other): 93 % of control
- T/C (dose: 200.0 mg/kg/injection, schedule: Q01DX009 (ip), vehicle: other): 100 % of control and 109 % of control
- T/C (dose: 200.0 mg/kg/injection, schedule: Q04DX002 (ip), vehicle: carboxymethylcellulose (CMC)): 96 % of control and 116 % of control
- T/C [7]: 106 % of control
- T/C (dose: 400.0 mg/kg/injection, schedule: Q01DX001 (ip), vehicle: other): 97 % of control
- T/C (dose: 400.0 mg/kg/injection, schedule: Q01DX009 (ip), vehicle: other): 94 % of control and 88 % of control
- T/C (dose: 400.0 mg/kg/injection, schedule: Q04DX002 (ip), vehicle: carboxymethylcellulose (CMC)): 103 % of control and 104 % of control
- T/C [8]: 105 % of control

Structure (SMILES): O=C(NCCCCN1CC1)C(=O)NCCCCN1CC1
- T/C (dose: 1.5 mg/kg/injection, schedule: Q04DX003 (ip), vehicle: Klucel (hydroxypropylcellulose) (HPC)): 108 % of control
- T/C (dose: 3.0 mg/kg/injection, schedule: Q04DX003 (ip), vehicle: Klucel (hydroxypropylcellulose) (HPC)): 118 % of control
- T/C (dose: 8.0 mg/kg/injection, schedule: Q04DX003 (ip), vehicle: Klucel (hydroxypropylcellulose) (HPC)): 155 % of control
- T/C (dose: 18.0 mg/kg/injection, schedule: Q04DX003 (ip), vehicle: Klucel (hydroxypropylcellulose) (HPC)): 177 % of control

Structure (SMILES): C=CCON(C)c1ccccc1
- T/C (dose: 100.0 mg/kg/injection, schedule: Q04DX003 (ip), vehicle: saline): 94 % of control
- T/C (dose: 200.0 mg/kg/injection, schedule: Q04DX003 (ip), vehicle: saline): 108 % of control
- T/C (dose: 400.0 mg/kg/injection, schedule: Q04DX003 (ip), vehicle: saline): 96 % of control

Structure (SMILES): CN(C)C(=O)CCC(=O)O
- T/C (dose: 100.0 mg/kg/injection, schedule: Q04DX002 (ip), vehicle: saline): 103 % of control
- T/C (dose: 200.0 mg/kg/injection, schedule: Q04DX002 (ip), vehicle: saline): 97 % of control
- T/C (dose: 400.0 mg/kg/injection, schedule: Q04DX002 (ip), vehicle: saline): 97 % of control

Structure (SMILES): COc1ccc(C(=O)CC(O)(C(F)(F)F)C(F)(F)F)cc1F
- T/C (dose: 100.0 mg/kg/injection, schedule: Q04DX003 (ip), vehicle: Klucel (hydroxypropylcellulose) (HPC)): 103 % of control
- T/C (dose: 200.0 mg/kg/injection, schedule: Q04DX003 (ip), vehicle: Klucel (hydroxypropylcellulose) (HPC)): 106 % of control
- T/C (dose: 400.0 mg/kg/injection, schedule: Q04DX003 (ip), vehicle: Klucel (hydroxypropylcellulose) (HPC)): 95 % of control
